Experimental data: article PMC8434099, “Selected Drug-Likeness Properties of 2-Arylidene-indan-1,3-dione Derivatives—Chemical Compounds with Potential Anti-Cancer Activity” (Molecules, 2021)

What was measured:
[1] = Chromatographic (RP-HPLC) examination of lipophilicity, Snyder–Soczewiński model; type: physicochemical
Experimental: The chromatographic analysis was carried out on a Shimadzu device equipped with a pump system (LC-20AD model), a detector with a diode bench (SPD-M20A model), a degasser (DGU-20A 5R model), a chromatographic oven (CTO-10AS VP), autosampler (SIL-20AC HT model), and chromatographic column (LiChrospher 100 RP-18, 5 μm, Poznań, Poland). Analyses were performed, leading to a multicratic elution. The mobile phase was methanol (J. T. Backer, Phillipsburg, NJ, USA) or acetonitrile (J. T. Backer) and water (Hydrolab, HPL5UV model, Straszyn, Poland) in different volume ratios. In individual analyses, the concentration of the organic modifier expressed as a […] was 0.75–0.95 with a constant step of 0.05. The test compounds were dissolved in methanol. The injection volume was 10 µL. The flow was set at 1 mL/min, the temperature of the chromatography oven at 25 °C, and the detector temperature at 2 °C higher than the ambient temperature. Compounds were detected in the range 190–800 nm. All samples were tested in duplicate at least. Column dead time (tM) was determined using uracil (Sigma Aldrich). The retention coefficient was calculated using the following formula:(1) k=tR/tM−1, where tR is the retention time of the test compound in a given eluent composition, and tM is the chromatographic column dead time.
The value of lipophilicity was determined using the linear dependence of the decimal logarithm from the retention coefficient (logk) and the concentration of the organic modifier in the mobile phase, which was expressed as a volume fraction. For this purpose, the following formula was used:(2) logk=logkw+Sφ, where logk is the decimal logarithm of the retention coefficient, logkw is the value obtained by extrapolating the curve, S is the slope of the regression curve, and φ is the volume fraction of the organic modifier.
The coefficient of determination (R^2) was also calculated for the prepared curves.

[2] = test system: Human Serum Albumin (HSA); experiment: Binding to albumin, fluorescence quenching; conditions: calculated from association constant KS for albumin concentration in blood of 44 mg/mL (660 μM)
Experimental: Fluorescence lifetime and fluorescence intensity of HSA solutions were measured using the time-resolved Fluorescence Spectrophotometer Life Spec II (Edinburgh Instruments Ltd., Livingston, UK) with the sub-nanosecond pulsed EPLED diode emitting a light of the wavelength 280 nm. The spectrometer was equipped with electronically cooled photomultiplier Hamamatsu R928 connected with TCC900 PC Card, which incorporates all the electronic modules required for Time-Correlated Single Photon Counting (TCSPC). The fluorescence decays were recorded at an emission wavelength of 350 nm. The data were fitted with an exponential decay to obtain total fluorescence intensity and lifetime. Measurements were performed at room temperature using quartz cuvettes 3.5 × 10 mm. The exposure time of the sample was 30 s. A spectrophotometer Jasco V-550 was used for absorption measurements.
Human Serum Albumin (HSA, 97%) was purchased from Sigma Aldrich. For the fluorescence quenching measurements, the 10 µM PBS solution of HSA at pH 7.4 was prepared, and 10 mM stock solutions of studied compounds were prepared in DMSO (dimethylsulfoxide). The final concentration of studied compounds in HSA solution varied between 0 and 70 µM.
Fluorescence quenching of albumin can be described by the Stern–Volmer Equation [21]: (3) F0/F=KSV[Q]+1, where F0 and F are the fluorescence intensities in the absence and presence of quencher, respectively, [Q] is the concentration of quencher, and KSV is the Stern–Volmer quenching constant.
Due to the fact that a quencher can absorb light at the excitation and/or emission wavelengths, the measured intensity should be corrected according to the Formula [22]:(4) Fobserved=Fcorrect×10^−Aex×dex/2−Aem×dem/2, where Fobserved is the measured fluorescence, Fcorrect is the fluorescence that would be measured in the absence of absorption effect, Aex and Aem are the absorbances of ligand at the excitation (280 nm) and emission wavelength (350 nm), respectively, and dex and dem are the cuvette pathlength in the excitation and emission direction (0.35 cm and 1 cm, respectively).
As the fluorophore can be quenched by collisions or by complex formation with the quencher, there are two types of quenching: dynamic and static. They can be distinguished by lifetime measurements. […] If the quenching is known to be dynamic, then:(5) F0/F=KD[Q]+1=τ0/τ, where τ0 and τ are the lifetimes in the absence and presence of quencher, and KD is the dynamic quenching constant.
In many cases, both static and dynamic quenching occurs for the same fluorophore, then modified Stern–Volmer equation has the form:(6) F0/F=(KD[Q]+1)(KS[Q]+1)=τ0/τ(KS[Q]+1),
The dynamic portion of the quenching (KD[Q] + 1), according to Equation (5), can be determined by lifetime measurements. The portion (KS[Q] + 1) relates to static quenching, and KS is the association constant, which is given by:(7) KS=[F−Q]/[F][Q], where [F−Q] is the concentration of complex fluorophore–quencher, [F] is the concentration of uncomplexed fluorophore (concentration of free HSA molecules), and [Q] is the concentration of quencher.
In this study, the tested compounds were added to the HSA solution, and the fluorescence intensity and lifetime at 350 nm were measured for varying concentrations of ligands. On the basis of absorbance measurements of ligands at 280 nm and 350 nm, the correct fluorescence intensities were estimated using Equation (4). Then, the Stern–Volmer constants, dynamic quenching constants, and association constants of studied compounds were determined using Equations (3), (5) and (6), respectively.
Knowing the value of association constant KS, it is possible to determine the theoretical percentage of the bound and free fraction of the drug for the physiological concentration of albumin. […]

B16F10 cells = experiment: Antiproliferative activity, MTT protocol; type: cell-based, mouse; conditions: 0.01 mg/mL, 72 h, relative to control culture
Experimental: Mouse melanoma (B16F10), human lung carcinoma (A549), and human cervix (HeLa) cell lines (kindly gifted by Prof. Tomasz Drewa, a Chair of Urology, Department of Regenerative Medicine, Collegium Medicum, Nicolaus Copernicus University, Bydgoszcz, Poland) were cultivated at 37 °C, controlled CO2 atmosphere (Binder, Tuttlingen, Germany), and high humidity with RPMI cell culture medium (with L-glutamine and sodium bicarbonate, Sigma-Aldrich), supplemented with 10% of fetal bovine serum (FBS, Biowest, Nuaillé, France), as well as antibiotics (penicillin, streptomycin) and antimycotics (amphotericin B) (Sigma-Aldrich). Combretastatin A4 (CA4), doxorubicin (DoX), and […] were purchased from Sigma-Aldrich.
Cells were counted with an automated cell counter (Countess® II FL, Invitrogen by Thermo Fisher Scientific Inc., Waltham, MA, USA). […] Absorbance readout was conducted using plate reader Multiskan Spectrum (Thermo Electron Corporation, Waltham, MA, USA) at 570 nm.
Combretastatin A4 (CA4), doxorubicin (DX), and […] were employed as positive controls. Biological evaluation was performed as three independent experiments; mean response and standard deviation were calculated using Excel software (v. 2013, Microsoft Corporation, Redmond, WA, USA).

In the case of `O=C1C(=Cc2cccc3ccccc23)C(=O)c2ccccc21` [Compound 3F, 2-[(naphthalen-1-yl)methylidene]-1H-indene-1,3(2H)-dione], the “logkw (ACN)” value ([1]; RP-HPLC, acetonitrile as organic modifier, extrapolated Snyder–Soczewiński curve) is reported as 2.6107, the “logkw (MeOH)” value ([1]; RP-HPLC, methanol as organic modifier, extrapolated Snyder–Soczewiński curve) is reported as 3.9640 and the “Δ = |logkw-MeOH − logkw-ACN|” value ([1]; difference of logkw between modifiers) is reported as 1.3533. For the same compound, the “−S (ACN)” value ([1]; slope of the Snyder–Soczewiński regression curve, acetonitrile as organic modifier) was 2.7449, the “−S (MeOH)” value ([1]; slope of the Snyder–Soczewiński regression curve, methanol as organic modifier) was 3.8549 and the “bound fraction (albumin)” value [2] was 93%. The fraction unbound ([2]; human, human serum albumin solution (10 µM HSA), pH 7.4, read-out: free fraction (albumin)) was 0.07 and the “Response of B16F10 cells (in words)” value (B16F10 cells) was “responded best”.
